Measured values as given in patent publication US20250195463A1, “ORGANOMETALLIC COMPLEX, CONTROLLED-RELEASE MULTI-FUNCTIONAL DRUG, PHARMACEUTICAL COMPOSITION, PROCESSES FOR THE PREPARATION THEREOF AND THEIR USE” (FACULDADE DE CIÊNCIAS DA UNIVERSIDADE DE LISBOA, priority 2022, published 2025).

Key:
[1] = Stability in organic medium (dimethyl sulfoxide) by UV-Vis spectroscopy; assay type: physicochemical; details: for Relative variation of the maximum absorbance of the π→π* transitions: band 289-300 nm (λmax in column head); for Relative variation of the maximum absorbance of the charge transfer bands: band 357-425 nm (λmax in column head)
Experimental: (§1) The stability of the complexes 4-11 in organic and aqueous media was evaluated over 24 h by UV-Vis spectroscopy at room temperature, in dark, on a Jasco V-660 spectrometer using quartz cuvettes (1 cm optical path length). The electronic spectra (270-900 nm) were acquired at regular periods of time (0 h, 0.25 h, 0.5 h, 0.75 h, 1 h, 2 h, 3 h, 4 h, 5 h, 6 h, 24 h) for solutions of 100% dimethyl sulfoxide (complexes 4-11) and 5% dimethyl sulfoxide/95% Dulbecco's Modified Eagle Medium (complexes 4, 5 and 8-11) or 10% dimethyl sulfoxide/90% Dulbecco's Modified Eagle Medium (complexes 6 and 7) at concentrations ranging from 7.0×10^-5 M to 3.0×10^-4 M.

[2] = Stability in aqueous medium (dimethyl sulfoxide/Dulbecco's Modified Eagle Medium) by UV-Vis spectroscopy; assay type: physicochemical; details: 5% dimethyl sulfoxide/95% Dulbecco's Modified Eagle Medium; for Relative variation of the maximum absorbance of the π→π* transitions: band 292-296 nm (λmax in column head); for Relative variation of the maximum absorbance of the charge transfer bands: band 358-400 nm (λmax in column head)
Experimental: as §1

For COc1cc[n+]2c(c1)-c1cc(O)cc[n+]1[Ru-]2([CH]1C=CC=C1)[PH](c1ccccc1)(c1ccccc1)c1ccccc1.O=S(=O)([O-])C(F)(F)F (centres unmarked) [compound 10], the “Relative variation of the maximum absorbance of the π→π* transitions” value (“Relative variation … of the π→π* transitions” for short) ([1]; time 0 h) was 0.0%, the “Relative variation of the maximum absorbance of the charge transfer bands” value ([1]; time 0 h) was 0.0% and the “Relative variation … of the π→π* transitions” value ([1]; time 0.25 h) was 0.0%. For the same compound, the “Relative variation of the maximum absorbance of the charge transfer bands” value ([1]; time 0.25 h) was 0.0%, the “Relative variation … of the π→π* transitions” value ([1]; time 0.5 h) was 0.0% and the “Relative variation of the maximum absorbance of the charge transfer bands” value ([1]; time 0.5 h) was −0.2%. For the same compound, the “Relative variation … of the π→π* transitions” value ([1]; time 0.75 h) was −0.1%, the “Relative variation of the maximum absorbance of the charge transfer bands” value ([1]; time 0.75 h) was −0.3% and the “Relative variation … of the π→π* transitions” value ([1]; time 1 h) was 0.9%. The “Relative variation of the maximum absorbance of the charge transfer bands” value ([1]; time 1 h) was 0.7%, the “Relative variation … of the π→π* transitions” value ([1]; time 2 h) was 1.5% and the “Relative variation of the maximum absorbance of the charge transfer bands” value ([1]; time 2 h) was 1.5%. The “Relative variation … of the π→π* transitions” value ([1]; time 3 h) was 2.5%, the “Relative variation of the maximum absorbance of the charge transfer bands” value ([1]; time 3 h) was 2.5% and the “Relative variation … of the π→π* transitions” value ([1]; time 4 h) was 3.0%. The “Relative variation of the maximum absorbance of the charge transfer bands” value ([1]; time 4 h) was 3.1%, the “Relative variation … of the π→π* transitions” value ([1]; time 5 h) was 3.0% and the “Relative variation of the maximum absorbance of the charge transfer bands” value ([1]; time 5 h) was 3.2%. The “Relative variation … of the π→π* transitions” value ([1]; time 6 h) was 2.8%, the “Relative variation of the maximum absorbance of the charge transfer bands” value ([1]; time 6 h) was 3.1% and the “Relative variation … of the π→π* transitions” value ([1]; time 24 h) was 3.3%. The “Relative variation of the maximum absorbance of the charge transfer bands” value ([1]; time 24 h) was 4.2%, the “Relative variation … of the π→π* transitions” value ([2]; time 0 h) was 0.0% and the “Relative variation of the maximum absorbance of the charge transfer bands” value ([2]; time 0 h) was 0.0%. The “Relative variation … of the π→π* transitions” value ([2]; time 0.25 h) was 0.0%, the “Relative variation of the maximum absorbance of the charge transfer bands” value ([2]; time 0.25 h) was −0.8% and the “Relative variation … of the π→π* transitions” value ([2]; time 0.5 h) was −1.7%. The “Relative variation of the maximum absorbance of the charge transfer bands” value ([2]; time 0.5 h) was −0.7%, the “Relative variation … of the π→π* transitions” value ([2]; time 0.75 h) was −1.9% and the “Relative variation of the maximum absorbance of the charge transfer bands” value ([2]; time 0.75 h) was −1.0%. The “Relative variation … of the π→π* transitions” value ([2]; time 1 h) was −2.2%, the “Relative variation of the maximum absorbance of the charge transfer bands” value ([2]; time 1 h) was −1.3% and the “Relative variation … of the π→π* transitions” value ([2]; time 2 h) was −3.1%. For the same compound, the “Relative variation of the maximum absorbance of the charge transfer bands” value ([2]; time 2 h) was −2.3%, the “Relative variation … of the π→π* transitions” value ([2]; time 3 h) was −4.1% and the “Relative variation of the maximum absorbance of the charge transfer bands” value ([2]; time 3 h) was −3.1%. The “Relative variation … of the π→π* transitions” value ([2]; time 4 h) was −5.1%, the “Relative variation of the maximum absorbance of the charge transfer bands” value ([2]; time 4 h) was −3.6% and the “Relative variation … of the π→π* transitions” value ([2]; time 5 h) was −5.6%. For the same compound, the “Relative variation of the maximum absorbance of the charge transfer bands” value ([2]; time 5 h) was −4.3%, the “Relative variation … of the π→π* transitions” value ([2]; time 6 h) was −6.0% and the “Relative variation of the maximum absorbance of the charge transfer bands” value ([2]; time 6 h) was −4.8%. For the same compound, the “Relative variation … of the π→π* transitions” value ([2]; time 24 h) was −7.0% and the “Relative variation of the maximum absorbance of the charge transfer bands” value ([2]; time 24 h) was −5.0%.

For CCOC(=O)Oc1cc[n+]2c(c1)-c1cc(OC)cc[n+]1[Ru-]2([CH]1C=CC=C1)[PH](c1ccccc1)(c1ccccc1)c1ccccc1.O=S(=O)([O-])C(F)(F)F (centres unmarked) [compound 11], the “Relative variation of the maximum absorbance of the charge transfer bands” value ([1]; time 0 h) was 0.0%, the “Relative variation of the maximum absorbance of the charge transfer bands” value ([1]; time 0.25 h) was 0.0% and the “Relative variation of the maximum absorbance of the charge transfer bands” value ([1]; time 0.5 h) was 0.2%. The “Relative variation of the maximum absorbance of the charge transfer bands” value ([1]; time 0.75 h) was 0.1%, the “Relative variation of the maximum absorbance of the charge transfer bands” value ([1]; time 1 h) was 0.3% and the “Relative variation of the maximum absorbance of the charge transfer bands” value ([1]; time 2 h) was 0.1%. The “Relative variation of the maximum absorbance of the charge transfer bands” value ([1]; time 3 h) was 0.0%, the “Relative variation of the maximum absorbance of the charge transfer bands” value ([1]; time 4 h) was −0.2% and the “Relative variation of the maximum absorbance of the charge transfer bands” value ([1]; time 5 h) was −0.3%. For the same compound, the “Relative variation of the maximum absorbance of the charge transfer bands” value ([1]; time 6 h) was −0.3%, the “Relative variation of the maximum absorbance of the charge transfer bands” value ([1]; time 24 h) was 0.2% and the “Relative variation … of the π→π* transitions” value ([2]; time 0 h) was 0.0%. For the same compound, the “Relative variation of the maximum absorbance of the charge transfer bands” value ([2]; time 0 h) was 0.0%, the “Relative variation … of the π→π* transitions” value ([2]; time 0.25 h) was −0.2% and the “Relative variation of the maximum absorbance of the charge transfer bands” value ([2]; time 0.25 h) was −0.1%. The “Relative variation … of the π→π* transitions” value ([2]; time 0.5 h) was −0.3%, the “Relative variation of the maximum absorbance of the charge transfer bands” value ([2]; time 0.5 h) was 0.0% and the “Relative variation … of the π→π* transitions” value ([2]; time 0.75 h) was −0.2%. The “Relative variation of the maximum absorbance of the charge transfer bands” value ([2]; time 0.75 h) was 0.1%, the “Relative variation … of the π→π* transitions” value ([2]; time 1 h) was −0.2% and the “Relative variation of the maximum absorbance of the charge transfer bands” value ([2]; time 1 h) was 0.1%. For the same compound, the “Relative variation … of the π→π* transitions” value ([2]; time 2 h) was −0.5%, the “Relative variation of the maximum absorbance of the charge transfer bands” value ([2]; time 2 h) was 0.1% and the “Relative variation … of the π→π* transitions” value ([2]; time 3 h) was −0.4%. The “Relative variation of the maximum absorbance of the charge transfer bands” value ([2]; time 3 h) was 0.1%, the “Relative variation … of the π→π* transitions” value ([2]; time 4 h) was −0.9% and the “Relative variation of the maximum absorbance of the charge transfer bands” value ([2]; time 4 h) was 0.0%. For the same compound, the “Relative variation … of the π→π* transitions” value ([2]; time 5 h) was −0.7%, the “Relative variation of the maximum absorbance of the charge transfer bands” value ([2]; time 5 h) was 0.1% and the “Relative variation … of the π→π* transitions” value ([2]; time 6 h) was −0.4%. The “Relative variation of the maximum absorbance of the charge transfer bands” value ([2]; time 6 h) was 0.2%, the “Relative variation … of the π→π* transitions” value ([2]; time 24 h) was −1.0% and the “Relative variation of the maximum absorbance of the charge transfer bands” value ([2]; time 24 h) was 0.4%.
